Test system: diarrhea-predominant IBS subjects
Test: Study S241.3.011: weekly diary questions on adequate relief
Format: in vivo, human
Conditions: for Overall responder rate, adequate relief of IBS symptoms / Overall responder rate, adequate relief of abdominal pain/discomfort / Overall responder rate, adequate relief of abnormal bowel habits: observed case
Protocol: Study S241.3.011 was a Phase III, double-blind, placebo-controlled, randomized, multinational study to investigate the safety and efficacy of 2 mg TID of cilansetron for a period of 12 weeks followed by a rerandomized, placebo-controlled four-week treatment period, in diarrhea-predominant IBS subjects. The study was conducted in six countries including the US. A total of 2115 subjects consented to participate, and 770 subjects were randomized. A total of 746 subjects were analyzed for efficacy and 755 subjects were analyzed for safety. Diagnosis and main criteria for inclusion were IBS subjects satisfying the Rome I criteria (1992); the diarrhea predominant sub-population of the Rome II criteria; and a minimum abdominal pain/discomfort, stool frequency and consistency determined during the run-in period. Subjects were treated with cilansetron 2 mg tablets given orally TID or matching placebo tablets given orally TID for 12 weeks followed by a rerandomized, placebo-controlled four-week treatment period.
The primary efficacy parameter was the number of months that a subject was a responder for IBS symptoms (abdominal pain, abdominal discomfort, abnormal bowel habits) over the 12-week treatment period. A responder for a month (monthly responder) was defined as a subject who answered the weekly question with “yes” at least twice for that month. The two main secondary efficacy parameters were the monthly responder rates based on the “adequate relief” questions regarding abdominal pain/discomfort and abnormal bowel habits during the 12-week treatment period. The overall response rate and responder rate for the weekly diary questions on adequate relief at each month and all months, the adequate relief rate, the number of subjects with adequate relief by week, daily diary questions, IBS-QOL scores, and the interruption of activities were also assessed. Safety was evaluated by physical examination, ECG, vital signs, laboratory evaluations, concomitant medications, and AEs.
Subjects who were initially randomized to the cilansetron 2 mg TID group and rerandomized to placebo, will be referred to as the C/P treatment group; subjects initially randomized to the placebo group and rerandomized to placebo will be referred to as the P/P treatment group; the P/C and C/C treatment group nomenclature follow the same principle. Of the 591 subjects who completed the three-month treatment period, 576 subjects were rerandomized and thus divided into the following treatment groups: 150 subjects in the C/C treatment group, 140 subjects in the C/P treatment group, 136 subjects in the P/C treatment group, and 150 subjects in the P/P treatment group. Of the 576 subjects rerandomized, a higher percentage of subjects in the C/C treatment group (99%) completed the study compared with the C/P (95%), P/C (93%), and the P/P (95%) treatment groups.
Studies S24 1.3.OO6, S24 1.3.0 1 1, and S24 1.3.009 used the following efficacy measurements: • The subjects answered the following three questions with “yes” or “no” using a phone diary at the end of each week: • a) During the last week, did you experience adequate relief of your IBS symptoms, such as abdominal pain, abdominal discomfort, abnormal bowel habits? • b) During the last week, did you experience adequate relief of your abdominal pain and/or discomfort? • c) During the last week, did you experience adequate relief of your abnormal bowel habits? • The subjects rated the following symptoms using the phone diary at the end of each day: • abdominal pain/discomfort (five-point scale); • stool consistency (seven-point Bristol Stool Scale); • stool frequency (number of bowel movements each day); • urgency (five-point scale); • straining (yes or no); • feeling of incomplete defecation (yes or no); • bloating or feeling of abdominal distension (five-point scale). • In Studies S241 A006 and S241.3.009, subjects completed the IBS-QOL Survey at Baseline (Day 1) and at the end of treatment. […]

[1] = Female subjects, three-month treatment period, monthly LOCF, ITT, 2 mg TID
[2] = Female subjects, three-month treatment period, ITT, 2 mg TID
[3] = Male subjects, three-month treatment period, monthly LOCF, ITT, 2 mg TID
[4] = Male subjects, three-month treatment period, ITT, 2 mg TID
[5] = RR Group C/C (cilansetron 2 mg TID, rerandomized to cilansetron)
[6] = RR Group C/P (cilansetron 2 mg TID, rerandomized to placebo)

Question: How did the “Number of months a subject was a responder: Three months (Abnormal bowel habits)” value [1] turn out when `Cc1nccn1C[C@H]1CCc2c(c3cccc4c3n2CCC4)C1=O` [Cilansetron, (R)-(−)-4,5,6,8,9,10-hexahydro-10-[(2-methyl-1H-imidazol-1-yl)methyl]-11H-pyrido-[3,2,1-jk]-carbazol-11-one] was run?
Answer: Its value is 101 (39) n (%).

Question: What about the “Number of months a subject was a responder: Three months (IBS symptoms)” value [1] of the same molecule?
Answer: The value was 96 (37) n (%).

Question: And the “Number of months a subject was a responder: Two months (Abdominal pain/discomfort)” value [1]?
Answer: The value was 57 (22) n (%).

Question: What about the “Number of months a subject was a responder: Two months (Abnormal bowel habits)” value [1] of the same molecule?
Answer: The value was 48 (18) n (%).

Question: What about the “Number of months a subject was a responder: Two months (IBS symptoms)” value [1] of the same molecule?
Answer: The value was 52 (20) n (%).

Question: What about the “Number of months a subject was a responder: Zero months (Abdominal pain/discomfort)” value [1] of the same molecule?
Answer: Its value is 74 (28) n (%).

Question: And the “Number of months a subject was a responder: Zero months (Abnormal bowel habits)” value [1]?
Answer: Its value is 79 (30) n (%).

Question: What about the “Number of months a subject was a responder: Zero months (IBS symptoms)” value [1] of the same molecule?
Answer: The value was 79 (30) n (%).

Question: And the “Overall responder rate, adequate relief of IBS symptoms” value [2]?
Answer: The value was 138 (53) n (%).

Question: And the “Overall responder rate, adequate relief of abdominal pain/discomfort” value [2]?
Answer: Its value is 151 (58) n (%).

Question: What about the “Overall responder rate, adequate relief of abnormal bowel habits” value [2] of the same molecule?
Answer: Its value is 140 (53) n (%).

Question: And the “Number of months a subject was a responder: One month (Abdominal pain/discomfort)” value [3]?
Answer: The value was 15 (13) n (%).

Question: What about the “Number of months a subject was a responder: One month (Abnormal bowel habits)” value [3] of the same molecule?
Answer: Its value is 16 (14) n (%).

Question: And the “Number of months a subject was a responder: One month (IBS symptoms)” value [3]?
Answer: The value was 19 (17) n (%).

Question: What about the “Number of months a subject was a responder: Three months (Abdominal pain/discomfort)” value [3] of the same molecule?
Answer: The value was 58 (50) n (%).

Question: What about the “Number of months a subject was a responder: Three months (Abnormal bowel habits)” value [3] of the same molecule?
Answer: Its value is 48 (42) n (%).

Question: What about the “Number of months a subject was a responder: Three months (IBS symptoms)” value [3] of the same molecule?
Answer: Its value is 52 (45) n (%).

Question: And the “Number of months a subject was a responder: Two months (Abdominal pain/discomfort)” value [3]?
Answer: The value was 15 (13) n (%).

Question: What about the “Number of months a subject was a responder: Two months (Abnormal bowel habits)” value [3] of the same molecule?
Answer: Its value is 18 (16) n (%).

Question: And the “Number of months a subject was a responder: Two months (IBS symptoms)” value [3]?
Answer: The value was 18 (16) n (%).

Question: What about the “Number of months a subject was a responder: Zero months (Abdominal pain/discomfort)” value [3] of the same molecule?
Answer: The value was 27 (23) n (%).

Question: And the “Number of months a subject was a responder: Zero months (Abnormal bowel habits)” value [3]?
Answer: The value was 33 (29) n (%).

Question: What about the “Number of months a subject was a responder: Zero months (IBS symptoms)” value [3] of the same molecule?
Answer: The value was 26 (23) n (%).

Question: What about the “Overall responder rate, adequate relief of IBS symptoms” value [4] of the same molecule?
Answer: Its value is 68 (59) n (%).

Question: And the “Overall responder rate, adequate relief of abdominal pain/discomfort” value [4]?
Answer: The value was 70 (61) n (%).

Question: What about the “Overall responder rate, adequate relief of abnormal bowel habits” value [4] of the same molecule?
Answer: Its value is 63 (55) n (%).

Question: And the “Responder rate, abdominal pain/discomfort” value (Peru)?
Answer: Its value is 69%.

Question: What about the “Responder rate, abnormal bowel habits” value (Peru) of the same molecule?
Answer: Its value is 75%.

Question: And the “Δ Month 4 vs Month 3, responder rate, Adequate Relief of Abdominal Pain/Discomfort” value (RR Group C/C)?
Answer: Its value is 0%.

Question: What about the “Δ Month 4 vs Month 3, responder rate, Adequate Relief of Abnormal Bowel Habits” value (RR Group C/C) of the same molecule?
Answer: Its value is “+2%”.

Question: What about the “Δ Month 4 vs Month 3, responder rate, Adequate Relief of IBS Symptoms” value (RR Group C/C) of the same molecule?
Answer: Its value is “+3%”.

Question: And the “Monthly responder rate, Adequate Relief of Abdominal Pain/Discomfort, Month 3” value [5]?
Answer: The value was 70%.

Question: And the “Monthly responder rate, Adequate Relief of Abdominal Pain/Discomfort, Month 4” value [5]?
Answer: The value was 70%.

Question: What about the “Monthly responder rate, Adequate Relief of Abnormal Bowel Habits, Month 3” value [5] of the same molecule?
Answer: Its value is 68%.

Question: And the “Monthly responder rate, Adequate Relief of Abnormal Bowel Habits, Month 4” value [5]?
Answer: Its value is 70%.

Question: What about the “Monthly responder rate, Adequate Relief of IBS Symptoms, Month 3” value [5] of the same molecule?
Answer: The value was 66%.

Question: And the “Monthly responder rate, Adequate Relief of IBS Symptoms, Month 4” value [5]?
Answer: Its value is 69%.

Question: What about the “Δ Month 4 vs Month 3, responder rate, Adequate Relief of Abdominal Pain/Discomfort” value (RR Group C/P) of the same molecule?
Answer: Its value is −16%.

Question: And the “Δ Month 4 vs Month 3, responder rate, Adequate Relief of Abnormal Bowel Habits” value (RR Group C/P)?
Answer: The value was −18%.

Question: And the “Δ Month 4 vs Month 3, responder rate, Adequate Relief of IBS Symptoms” value (RR Group C/P)?
Answer: Its value is −22%.

Question: What about the “Monthly responder rate, Adequate Relief of Abdominal Pain/Discomfort, Month 3” value [6] of the same molecule?
Answer: The value was 66%.

Question: What about the “Monthly responder rate, Adequate Relief of Abdominal Pain/Discomfort, Month 4” value [6] of the same molecule?
Answer: The value was 50%.

Question: And the “Monthly responder rate, Adequate Relief of Abnormal Bowel Habits, Month 3” value [6]?
Answer: Its value is 60%.

Question: What about the “Monthly responder rate, Adequate Relief of Abnormal Bowel Habits, Month 4” value [6] of the same molecule?
Answer: Its value is 42%.

Question: And the “Monthly responder rate, Adequate Relief of IBS Symptoms, Month 3” value [6]?
Answer: The value was 61%.

Question: And the “Monthly responder rate, Adequate Relief of IBS Symptoms, Month 4” value [6]?
Answer: Its value is 39%.

Question: What about the “Overall responder rate, IBS symptoms” value (entire four months, C/C group) of the same molecule?
Answer: Its value is 66%.

Question: And the “Overall responder rate, abdominal pain/discomfort” value (entire four months, C/C group)?
Answer: Its value is 70%.

Question: What about the “Overall responder rate, abnormal bowel habits” value (entire four months, C/C group) of the same molecule?
Answer: Its value is 69%.

Question: What about the “Overall responder rate, IBS symptoms” value (females) of the same molecule?
Answer: The value was 53%.

Question: What about the “Overall responder rate, abdominal pain/discomfort” value (females) of the same molecule?
Answer: The value was 58%.

Question: What about the “Overall responder rate, abnormal bowel habits” value (females) of the same molecule?
Answer: Its value is 53%.

Question: What about the “Overall responder rate, IBS symptoms” value (males) of the same molecule?
Answer: The value was 59%.

Question: What about the “Overall responder rate, abdominal pain/discomfort” value (males) of the same molecule?
Answer: Its value is 61%.

Question: And the “Overall responder rate, abnormal bowel habits” value (males)?
Answer: Its value is 55%.

Question: What about the “Overall responder rate, IBS symptoms” value (non-Caucasians) of the same molecule?
Answer: Its value is 66%.

Question: And the “Overall responder rate, abdominal pain/discomfort” value (non-Caucasians)?
Answer: The value was 66%.

Question: And the “Overall responder rate, abnormal bowel habits” value (non-Caucasians)?
Answer: Its value is 70%.
